# Experimental data as given in patent US10813982B2, “Composition comprising an oxidoreductase enzyme and its antibacterial use” (SYSTAGENIX WOUND MANAGEMENT, LIMITED, priority 2015, dated 2020).
# Tests used:
# S. aureus biofilms = assay: Biofilm model: 24 hour exposure against 24 hour old single species biofilm, viable count; assay type: cell-based, Staphylococcus aureus; conditions: 30 μl per disc/biofilm, 37° C., 80 rpm shaking, FIG. 2
# Experimental: (§1) Stationary phase cultures of S. aureus or P. aeruginosa grown in TSB were adjusted to 0.5 McFarland (c. 1.5×10^8 CFU/mL) and diluted a further 1:4 ratio (1 mL inoculum with 3 mL 0.1% Bactopeptone). A viable count was taken of each inoculum preparation. Sterile discs (6 mm diameter×1.0 mm) housed in 24 well culture plates were inoculated with 80 μL of culture. 0.2 ml of a test media was then added, the assay plates were parafilmed and incubated for 24 h at 37 degrees Celsius with 80 rpm shaking to allow biofilm formation. Unused wells were filled with PBS to increase humidity and prevent evaporation. After 24 hours incubation, cellulose discs/biofilms were rinsed with PBS to remove any […] vegetative cells and transferred to 150 μl of fresh media. For the honey (as the source of glucose) and Prontosan®, 30 μl was added to each test disc. […] Assuming the lowest concentration (100,[…]), 3.5 mg (350 U) was added to 3.5 ml of DPBS to give a 100 U/ml working stock which was filter sterilised. […] 30 μl of each was added to a disc/biofilm. The assay plates were parafilmed and incubated for 24 hours at 37° C. with 80 rpm shaking to allow biofilm disruption. Unused wells were filled with PBS to increase humidity and prevent evaporation. […]
# P. aeruginosa biofilms = assay: as above; assay type: cell-based, Pseudomonas aeruginosa; conditions: 30 μl per disc/biofilm, 37° C., 80 rpm shaking, FIG. 1
# Experimental: as §1, with “sterilised. For the Pseudomonas experiment, the working stock was diluted in PBS to give a 10 U/ml solution-30 μl was added to a disc/biofilm.” for “sterilised.”
substance,measurement,setting,value
glucose oxidase [glucose oxidase alone],inhibition of 24 hour old single species biofilms of S. aureus,S. aureus biofilms,no inhibition
same,inhibition of 24 hour old single species biofilms of P. aeruginosa,P. aeruginosa biofilms,no inhibition
